From US12146183B2, “Compound and a method for identifying a protein using said compound” (CITY UNIVERSITY OF HONG KONG, priority 2020, dated 2024) come the findings set out here.

What all share (type): biochemical
The target of assay [1] is T1, Sirt2 (Homo sapiens, UniProt Q8IXJ6).
T1 construct: made in house
T1 sequence (Q8IXJ6 1-389): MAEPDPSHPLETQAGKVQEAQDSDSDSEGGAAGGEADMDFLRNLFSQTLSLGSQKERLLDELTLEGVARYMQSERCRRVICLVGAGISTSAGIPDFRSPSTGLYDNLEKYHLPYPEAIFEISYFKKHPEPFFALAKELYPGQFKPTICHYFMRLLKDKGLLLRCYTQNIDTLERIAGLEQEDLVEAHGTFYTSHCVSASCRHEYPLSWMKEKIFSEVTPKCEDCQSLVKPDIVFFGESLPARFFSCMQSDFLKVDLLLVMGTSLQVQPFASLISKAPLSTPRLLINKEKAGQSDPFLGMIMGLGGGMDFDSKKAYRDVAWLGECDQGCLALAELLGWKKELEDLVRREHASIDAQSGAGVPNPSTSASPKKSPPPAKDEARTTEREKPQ
The assay can be described thus: Fluorimeter delipoylation assay of probe KTlip with Sirt2. As for the experimental part:
The capacity of HDACs to recognize and remove the lipoyl group of KTlip was examined by a fluorimeter assay. KTlip was incubated with various HDACs at 37° C. in HEPES buffer (pH 8.0). The fluorescence of the enzymatic reactions was then measured accordingly. […] Further HPLC and MS analysis confirmed that the molecular weight of the newly generated peak corresponded to the expected tandem de-lipoylated/exchanged product. […] After enzymatic reaction with Sirt2, a shift of peak absorption from 380 nm to 480 nm was clearly observed. Through detailed kinetic study, the first-order rate constant of the reaction was determined to be 0.013 min-1. […]
The probe KTlip was incubated with sirtuin and NAD+ at 37° C. in 20 mM HEPES buffer (pH 8.0) containing 150 mM NaCl, 1 mM MgCl2, and 2.7 mM KCl. […] When the enzymatic reaction was complete, the reaction was applied for absorption and fluorescence measurement. The parameter set for absorbance measurement was as follows: UV-visible light, collection region: 300-550 nm. The parameter set for fluorescence measurements was as follows: λex=480 nm, slit width: 5 nm, collection region: 510-600 nm.
The rate constant was calculated by fitting the fluorescence data to the following equation: Fluorescence intensity=1−exp(−kt) Enzymatic Reaction with Lipoylated Peptides.

For another assay, the target named is T2, Sirt1 (Homo sapiens, UniProt Q96EB6).
T2 construct: made in house
T2 sequence (Q96EB6 1-747): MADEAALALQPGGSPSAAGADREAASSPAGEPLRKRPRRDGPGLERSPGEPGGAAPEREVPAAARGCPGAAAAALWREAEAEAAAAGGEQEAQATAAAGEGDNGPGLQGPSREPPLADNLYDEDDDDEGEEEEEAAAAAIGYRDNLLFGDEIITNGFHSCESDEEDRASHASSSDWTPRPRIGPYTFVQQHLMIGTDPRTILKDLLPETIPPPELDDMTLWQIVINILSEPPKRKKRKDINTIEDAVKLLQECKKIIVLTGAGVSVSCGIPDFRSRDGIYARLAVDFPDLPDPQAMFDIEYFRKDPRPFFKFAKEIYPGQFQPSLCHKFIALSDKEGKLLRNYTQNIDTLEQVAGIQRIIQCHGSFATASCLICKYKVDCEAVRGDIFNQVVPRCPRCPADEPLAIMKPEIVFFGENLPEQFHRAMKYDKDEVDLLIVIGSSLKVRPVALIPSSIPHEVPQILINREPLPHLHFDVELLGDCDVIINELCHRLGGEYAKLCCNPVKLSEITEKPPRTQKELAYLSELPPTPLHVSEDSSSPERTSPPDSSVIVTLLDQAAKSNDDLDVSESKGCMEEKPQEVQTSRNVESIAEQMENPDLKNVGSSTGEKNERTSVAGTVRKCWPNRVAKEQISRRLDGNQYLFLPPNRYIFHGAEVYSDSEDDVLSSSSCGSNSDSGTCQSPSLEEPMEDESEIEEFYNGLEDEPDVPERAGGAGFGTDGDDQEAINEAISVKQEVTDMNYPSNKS
The assay can be described thus: Fluorimeter delipoylation assay of probe KTlip with Sirt1. Particulars: Sirt1, 37° C., HEPES buffer pH 8.0. On the procedure: (§1) The capacity of HDACs to recognize and remove the lipoyl group of KTlip was examined by a fluorimeter assay. KTlip was incubated with various HDACs at 37° C. in HEPES buffer (pH 8.0). The fluorescence of the enzymatic reactions was then measured accordingly. […] Further HPLC and MS analysis confirmed that the molecular weight of the newly generated peak corresponded to the expected tandem de-lipoylated/exchanged product. […] After enzymatic reaction with Sirt2, a shift of peak absorption from 380 nm to 480 nm was clearly observed. Through detailed kinetic study, the first-order rate constant of the reaction was determined to be 0.013 min-1. The Km value of KTlip obtained from the fluorescent method matched well with that from the traditional HPLC method, underscoring that probe KTlip can serve as a useful tool for detecting enzymatic delipoylation activity.
(§2) The probe KTlip was incubated with sirtuin and NAD+ at 37° C. in 20 mM HEPES buffer (pH 8.0) containing 150 mM NaCl, 1 mM MgCl2, and 2.7 mM KCl. The enzymatic reaction volume was 50 μL. When the enzymatic reaction was complete, the reaction was applied for absorption and fluorescence measurement. The parameter set for absorbance measurement was as follows: UV-visible light, collection region: 300-550 nm. The parameter set for fluorescence measurements was as follows: λex=480 nm, slit width: 5 nm, collection region: 510-600 nm.

The next assay deals with T3, Sirt3 (Homo sapiens, UniProt Q9NTG7).
T3 construct: made in house
T3 sequence (Q9NTG7 1-399): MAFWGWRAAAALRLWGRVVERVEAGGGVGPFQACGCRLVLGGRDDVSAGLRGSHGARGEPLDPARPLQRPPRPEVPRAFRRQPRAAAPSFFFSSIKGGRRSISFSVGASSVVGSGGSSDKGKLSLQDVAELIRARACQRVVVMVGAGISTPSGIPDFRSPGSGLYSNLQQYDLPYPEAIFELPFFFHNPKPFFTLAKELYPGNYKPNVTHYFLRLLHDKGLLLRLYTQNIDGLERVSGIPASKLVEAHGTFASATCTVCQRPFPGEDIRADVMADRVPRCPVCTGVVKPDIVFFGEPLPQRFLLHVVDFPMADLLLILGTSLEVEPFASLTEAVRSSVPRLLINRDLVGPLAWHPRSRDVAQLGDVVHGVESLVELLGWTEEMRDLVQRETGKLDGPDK
The assay can be described thus: Fluorimeter delipoylation assay of probe KTlip with Sirt3. Conditions: Sirt3, 37° C., HEPES buffer pH 8.0. As for the experimental part:
as §1, §2

The next assay addresses T4, Sirt5 (Homo sapiens, UniProt Q9NXA8).
T4 construct: made in house
T4 sequence (Q9NXA8 37-310): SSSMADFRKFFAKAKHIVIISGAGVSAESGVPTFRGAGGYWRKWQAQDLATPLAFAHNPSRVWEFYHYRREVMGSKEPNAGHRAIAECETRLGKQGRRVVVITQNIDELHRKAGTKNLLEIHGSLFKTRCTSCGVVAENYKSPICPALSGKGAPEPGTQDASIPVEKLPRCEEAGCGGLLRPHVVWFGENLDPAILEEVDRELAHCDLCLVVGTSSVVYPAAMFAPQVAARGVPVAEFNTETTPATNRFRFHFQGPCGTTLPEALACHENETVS
Briefly: Fluorimeter delipoylation assay of probe KTlip with Sirt5. Conditions: Sirt5, 37° C., HEPES buffer pH 8.0. On the procedure:
as §1, §2

In a further assay the target is T5, Sirt6 (Homo sapiens, UniProt Q8N6T7).
T5 construct: made in house
The assay can be described thus: Fluorimeter delipoylation assay of probe KTlip with Sirt6. Particulars: Sirt6, 37° C., HEPES buffer pH 8.0. On the procedure:
as §1, §2

The next assay has as its target T6, HDAC8 (Homo sapiens, UniProt Q9BY41).
T6 sequence (Q9BY41 1-377): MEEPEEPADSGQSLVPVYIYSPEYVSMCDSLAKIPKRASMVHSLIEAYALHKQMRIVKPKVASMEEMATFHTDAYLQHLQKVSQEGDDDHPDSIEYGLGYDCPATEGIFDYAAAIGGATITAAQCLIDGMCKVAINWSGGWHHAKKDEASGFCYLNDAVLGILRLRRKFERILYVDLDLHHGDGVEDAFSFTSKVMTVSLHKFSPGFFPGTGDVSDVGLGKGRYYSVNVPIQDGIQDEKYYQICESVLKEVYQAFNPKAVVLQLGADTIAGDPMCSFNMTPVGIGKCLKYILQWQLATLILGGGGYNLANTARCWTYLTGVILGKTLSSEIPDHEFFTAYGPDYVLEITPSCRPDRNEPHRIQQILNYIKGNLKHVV
Briefly: Fluorimeter and HPLC/MS delipoylation assay of probe KTlip with HDAC8. On the procedure:
as §1, §2

Assay [2] deals with T1, Sirt2. The assay can be described thus: HPLC delipoylation assay of lipoylated peptides with Sirt2. Particulars: Sirt2 + NAD+, 37° C., monitored at 280 nm after 40 min. As for the experimental part:
A total of 11 lipoylated peptides (KAlip-1 to KAlip-11) were synthesised. The peptide sequences were selected from proteins that have been reported as being lipoylated (PDH, KDH, BCKDH, and GCV) and non-lipoylated proteins (e.g., histone). The peptides were synthesized with a standard Fmoc solid phase synthesis approach and characterized by LC-MS. The delipoylation activity was then determined by an HPLC assay. Compared with non-putative peptides, putative lipoylated peptides appeared to be more efficiently hydrolyzed by Sirt2. For example, the delipoylated product of KAlip-1 (derived from histone) after 40 min was determined to be 59%, which is less than that of putative lipoylated substrates such as KAlip-5 and KAlip-6 (derived from PDH).
The lipoylated peptides KAlip-1 to -11 were incubated with sirtuin and cofactor NAD+ at 37° C. in 20 mM HEPES buffer (pH 8.0) containing 150 mM NaCl, 1 mM MgCl2, and 2.7 mM KCl. The reaction volume was set to 50 μL. At each specific reaction time point, the reaction mixtures were quenched by adding 250 μL of methanol. The reactions were vortexed and centrifuged. Supernatant was collected and then analysed by reverse phase HPLC. The new peak generated was collected for ESI-MS or MALDI-TOF-MS analysis directly.

The target of assay [3] is T1, Sirt2. The assay can be described thus: Steady-state kinetic study of lipoylated peptides with Sirt2 (HPLC). Particulars: relative to KAlip-1. On the procedure: The delipoylation activity of HDAC8 was further examined using KAlip-5 and KAlip-1. […] A more detailed assessment of the enzymatic delipoylation reaction was performed. Time-dependent experiments and steady-state kinetics studies were conducted of KAlip-1, 5, 8, and 10 with Sirt2 (Table 1).
To determine the values of kcat, and Km, purified Sirt2 with 400 μM NAD+ was incubated with different concentrations of lipoylated peptide (0-120 μM) in 20 mM HEPES buffer (pH 8.0) containing 150 mM NaCl, 1 mM MgCl2, and 2.7 mM KCl at 37° C. for 10 min (KAlip-1 and KAlip-10) or 5 min (KAlip-5 and KAlip-8). The reactions were quenched by adding 250 μL of methanol and then applied for HPLC analysis with a linear gradient of 5% to 85% B (acetonitrile) for 30 min. The generated delipoylated product was quantified based on the peak area monitored at 280 nm. The kcat, and Km, values were calculated by curve-fitting Vinitiai/[E] versus [S]. The experiments were conducted in duplicate.

T5 sequence (Q8N6T7 whole entry, species assumed): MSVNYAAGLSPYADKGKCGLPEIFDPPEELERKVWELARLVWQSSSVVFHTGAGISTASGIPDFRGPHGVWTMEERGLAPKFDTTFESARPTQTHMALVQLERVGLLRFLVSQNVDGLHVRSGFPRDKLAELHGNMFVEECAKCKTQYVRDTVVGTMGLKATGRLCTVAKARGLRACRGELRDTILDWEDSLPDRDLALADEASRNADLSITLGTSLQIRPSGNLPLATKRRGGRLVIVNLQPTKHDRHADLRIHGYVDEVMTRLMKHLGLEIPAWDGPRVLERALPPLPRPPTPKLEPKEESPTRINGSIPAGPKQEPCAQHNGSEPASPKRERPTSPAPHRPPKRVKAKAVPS

For `CC(C)(C)OC(=O)N[C@@H](CCCCNC(=O)CCCCC1CCSS1)C(=O)NCCOCCOc1ccc([N+](=O)[O-])c2nonc12` (stereo partly shown) [KTlip], the Fluorescence increase on Sirt2 [1] (Sirt2, 37° C., HEPES buffer pH 8.0) was 60 fold; at Sirt3, “did not show a noticeable fluorescence increase”; on Sirt5, “did not show a noticeable fluorescence increase”; at Sirt6, “did not show a noticeable fluorescence increase”; at HDAC8 (HDAC8, 37° C., HEPES buffer pH 8.0) it was “did not show a noticeable fluorescence increase”. In addition, at Sirt2 [1] (Sirt2, fluorescence fit), the “First-order rate constant of the reaction” value stood at 0.013 min⁻¹. In addition, the Fluorescence signal result at Sirt1 was “much lower fluorescence signal”. Also, on HDAC8 (HDAC8 enzymatic reaction conditions), the “De-lipoylated product (HPLC and MS analysis)” value is on record as “No de-lipoylated product was observed”.
As for ALESVK(lip)AASEWW [KAlip-10], the “Delipoylation product (HPLC yield of delipoylated product)” value at Sirt2 [2] stood at 71%. The “Catalytic efficiency of Sirt2 compared with nonputative H3K9 lipoyl peptide (KAlip-1)” value on Sirt2 [3] is listed as “slightly higher”.
